Data: ChEMBL document CHEMBL3525941, “Comparison of in vitro metabolism of ticlopidine by human cytochrome P450 2B6 and rabbit cytochrome P450 2B4” (Drug Metab Dispos, 2011)

Columns and labels:
[1] = Retention time of the compound by HPLC-MS analysis; format: physicochemical
CYP2B6 = target: T1, CYP2B6 (Homo sapiens, UniProt P20813); test: Inhibition of human CYP2B6 assessed as inactivation rate constant at 100 uM for 2 mins by HPLC-MS analysis in presence of NADPH; format: ADME
T1 sequence (P20813 whole entry): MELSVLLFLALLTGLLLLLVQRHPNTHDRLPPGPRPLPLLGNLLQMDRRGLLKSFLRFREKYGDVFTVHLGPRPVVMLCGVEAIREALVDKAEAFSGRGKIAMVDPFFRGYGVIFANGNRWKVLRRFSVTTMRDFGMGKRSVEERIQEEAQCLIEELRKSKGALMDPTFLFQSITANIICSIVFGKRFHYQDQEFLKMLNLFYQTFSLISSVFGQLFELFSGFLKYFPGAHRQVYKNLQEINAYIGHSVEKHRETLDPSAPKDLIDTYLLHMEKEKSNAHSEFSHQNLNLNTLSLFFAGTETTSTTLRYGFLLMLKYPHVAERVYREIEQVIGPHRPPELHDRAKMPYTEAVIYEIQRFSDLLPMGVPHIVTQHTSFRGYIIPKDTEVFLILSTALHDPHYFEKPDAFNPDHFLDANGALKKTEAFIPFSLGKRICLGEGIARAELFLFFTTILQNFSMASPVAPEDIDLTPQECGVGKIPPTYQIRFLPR

CYP2B4 = target: T2, CYP2B4 (Oryctolagus cuniculus, UniProt P00178); test: Inhibition of rabbit CYP2B4 assessed as inactivation rate constant at 100 uM for 2 mins by HPLC-MS analysis in presence of NADPH; format: ADME
T2 sequence (P00178 whole entry): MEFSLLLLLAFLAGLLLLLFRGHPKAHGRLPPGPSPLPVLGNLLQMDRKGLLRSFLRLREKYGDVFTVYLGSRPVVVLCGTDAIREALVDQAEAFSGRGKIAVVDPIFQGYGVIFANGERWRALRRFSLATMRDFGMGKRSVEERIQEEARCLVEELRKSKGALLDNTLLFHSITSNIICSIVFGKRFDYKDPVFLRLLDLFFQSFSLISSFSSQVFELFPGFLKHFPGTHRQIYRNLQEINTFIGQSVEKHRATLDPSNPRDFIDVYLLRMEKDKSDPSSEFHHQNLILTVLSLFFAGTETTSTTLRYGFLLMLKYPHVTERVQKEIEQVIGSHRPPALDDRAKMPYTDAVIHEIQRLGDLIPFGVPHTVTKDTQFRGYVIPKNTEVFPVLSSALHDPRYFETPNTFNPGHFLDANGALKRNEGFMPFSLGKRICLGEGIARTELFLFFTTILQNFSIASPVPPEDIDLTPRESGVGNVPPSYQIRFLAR

Cytochrome P450 2B6 [2] = target: T3, Cytochrome P450 2B6 (Homo sapiens, UniProt P20813); test: Activity of human CYP2B6 assessed as enzyme-mediated compound formation treated with 10 uM ticlopidine for 60 mins by HPLC-MS analysis in presence of NADPH; format: ADME; conditions: 1 h
T3 sequence (P20813 whole entry): T1 sequence (P20813 whole entry)

Cytochrome P450 2B4 [3] = target: T4, Cytochrome P450 2B4 (Oryctolagus cuniculus, UniProt P00178); test: Activity of rabbit CYP2B4 assessed as enzyme-mediated compound formation treated with 10 uM ticlopidine for 60 mins by HPLC-MS analysis in presence of NADPH; format: ADME; conditions: 1 h
T4 sequence (P00178 whole entry): T2 sequence (P00178 whole entry)

Cytochrome P450 2B6 [4] = target: T3, Cytochrome P450 2B6; test: Activity of recombinant full-length CYP2B6 (unknown origin) expressed in baculovirus-infected insect cells assessed as enzyme-mediated compound formation treated with 10 uM ticlopidine for 60 mins by HPLC-MS analysis in presence of NADPH; format: ADME; conditions: 1 h
Liver microsome = test: Drug level in human liver microsomes assessed as compound formation treated with 10 uM ticlopidine for 60 mins by HPLC-MS analysis in presence of NADPH; format: ADME; conditions: 1 h
Cytochrome P450 2B4 [5] = target: T4, Cytochrome P450 2B4; test: Activity of rabbit CYP2B4 assessed as observed rate constant for enzyme-mediated compound formation treated with 1 uM ticlopidine by HPLC-MS analysis in presence of NADPH; format: ADME
Cytochrome P450 2B6 [6] = target: T3, Cytochrome P450 2B6; test: Activity of human CYP2B6 assessed as observed rate constant for enzyme-mediated compound formation treated with 1 uM ticlopidine by HPLC-MS analysis in presence of NADPH; format: ADME

With CC(NC(C)(C)C)C(=O)c1cccc(Cl)c1 (stereo not given) [BUPROPION] as the compound, how does the Retention_time [1] read?
Its Retention_time is 9.7 min.

And the kinact at 2 min, 100 µM (CYP2B6)?
Its kinact at 2 min, 100 µM is 0.00533 s⁻¹.

What about the kinact at 2 min, 100 µM (CYP2B4) of the same compound?
The kinact at 2 min, 100 µM was 0.00133 s⁻¹.

Which Compound recovery (Cytochrome P450 2B6 [2]) does the source give for Clc1ccccc1C[N+]1=Cc2ccsc2CC1 here?
The Compound recovery was “metabolite_detected”.

What about the Compound recovery (Cytochrome P450 2B4 [3]) of the same compound?
Its Compound recovery is “metabolite_detected”.

What about the Compound recovery (Cytochrome P450 2B6 [4]) of the same compound?
Its Compound recovery is “metabolite_detected”.

And the Compound recovery (Liver microsome)?
Its Compound recovery is “metabolite_detected”.

Which Compound recovery (Cytochrome P450 2B6 [2]) does the source give for Clc1ccccc1C[n+]1ccc2sccc2c1 here?
Its Compound recovery is “metabolite_detected”.

And the Compound recovery (Cytochrome P450 2B4 [3])?
The Compound recovery was “metabolite_detected”.

What about the Compound recovery (Cytochrome P450 2B6 [4]) of the same compound?
The Compound recovery was “metabolite_detected”.

What about the Compound recovery (Liver microsome) of the same compound?
The Compound recovery was “metabolite_detected”.

And the kobs (Cytochrome P450 2B4 [5])?
Its kobs is 0.56 min⁻¹.

Which results are given for O=C1C=C2CN(Cc3ccccc3Cl)CCC2S1 (stereo not given)?
Compound recovery (Cytochrome P450 2B6 [2]): metabolite_detected; Retention_time [1]: 4.9 min; kobs (Cytochrome P450 2B6 [6]): 0.5 min⁻¹; Compound recovery (Cytochrome P450 2B4 [3]): metabolite_detected; Compound recovery (Cytochrome P450 2B6 [4]): metabolite_detected; Compound recovery (Liver microsome): metabolite_detected; kobs (Cytochrome P450 2B4 [5]): 0.48 min⁻¹

What does the source list for [O-][N+]1(Cc2ccccc2Cl)CCc2sccc2C1 (stereo not given)?
Compound recovery (Cytochrome P450 2B6 [2]): metabolite_detected; Retention_time [1]: 8 min; kobs (Cytochrome P450 2B6 [6]): 0.61 min⁻¹; Compound recovery (Cytochrome P450 2B4 [3]): metabolite_detected; Compound recovery (Cytochrome P450 2B6 [4]): metabolite_detected; Compound recovery (Liver microsome): metabolite_detected; kobs (Cytochrome P450 2B4 [5]): 0.66 min⁻¹

What does the source list for CCOc1ccc2c(C(F)(F)F)cc(=O)oc2c1?
kinact at 2 min, 100 µM (CYP2B6): 0.00167 s⁻¹; kinact at 2 min, 100 µM (CYP2B4): 0.000333 s⁻¹

For OC1CN(Cc2ccccc2Cl)Cc2ccsc21 (stereo not given), which Compound recovery (Cytochrome P450 2B6 [2]) is on record?
Its Compound recovery is “metabolite_detected”.

And the Retention_time [1]?
Its Retention_time is 4.56 min.

What about the kobs (Cytochrome P450 2B6 [6]) of the same compound?
The kobs was 0.48 min⁻¹.

And the Compound recovery (Cytochrome P450 2B4 [3])?
The Compound recovery was “metabolite_detected”.

What about the Compound recovery (Cytochrome P450 2B6 [4]) of the same compound?
The Compound recovery was “metabolite_detected”.

What about the Compound recovery (Liver microsome) of the same compound?
Its Compound recovery is “metabolite_detected”.

What about the kobs (Cytochrome P450 2B4 [5]) of the same compound?
Its kobs is 0.49 min⁻¹.
